Data set [1] relates to green foxtail. Description: Laboratory soil column leaching bioassay (growth inhibition of sensitive test plants at soil depths). In kind it is in vivo, green foxtail (setaria); wheat also sown. The conditions noted are these: laboratory and field experiments. The procedure: 1. Under laboratory and field conditions, the following bioassay column technique was used to evaluate the leaching of the herbicide using sensitive plants to the given herbicide. Briefly, the experiments have used 100×100×200 mm tin columns filled with soil. The column surface is sprayed with either the commercial formulation of the herbicide or with the organoclay formulated herbicide. The herbicide is added at the same amounts as in the field applications, i.e., 200 g of the active ingredient per 1000 m^2. Then the columns are irrigated with 50 m^3 /[…]. The water is added throughout 5 hours. The columns are left for 24 hr and then sliced along their lengths into two parts (right and left). Two plants, setaria and wheat were sown in each part in two rows and irrigated with water. The height and the weight of the plants 7 days after emergence are used as an indicator of the presence of herbicide at different depths in the soil column.
Alachlor was applied at 2.0 kg/ha followed by irrigation of 500 m^3 /ha. bars indicate standard errors.
Green foxtail growth was used to estimate the presence of matolachlor. Metolachlor formulations were commercial formulation (comm.); metolachlor on clay alone (Mont); metolachlor on clay pre-absorbed with BTMA 0.5 mole/kg clay. The clay based formulations contained 13% metolachlor. […] Bars indicate standard errors.
Green foxtail growth was used to estimate the presence of matolachlor. Metolachlor formulations were commercial formulation (comm.); metolachlor on clay pre-absorbed with PTMA 0.5 mole/kg clay. The clay based formulations contained 13% metolachlor. […] Bars indicate standard errors.

Data set [2] is described as follows: Adsorption isotherms of herbicide on montmorillonite pre-adsorbed by organic cations. Type of data set: physicochemical. To be noted: for adsorption on montmorillonite pre adsorbed by organic cations: FIGS. 1A and 1B. As to the method: A suitable concentrated solution of the organic cation is added dropwise to a 0.5 or 1% W/W of clay suspension (e.g. Montmorillonite; Sepiolite; Palygorskite; Pillared clays). After separation of the supernatant, the organoclay complex is dried and ground to less than 50 μm. The herbicide is dissolved in a suitable volatile organic solvent e.g. hexane, dichloro methane, acetone, and mixed with the solid organoclay in weight relations of 5-20 g of herbicide to 95-80 g organoclay. The organic solvent is evaporated under gentle reduced pressure and continuous mixing and the resulting herbicide-organoclay complex is ground to less than 50 μm. The pesticide formulation can be further improved by adding water or another solvent to the dried material; removing the loosely bound pesticide, and drying again.
BTMS 0.8 mole/kg, BTEA 0.8 mole/kg, BTEA 0.5 mole/kg or HDTMA 0.5 mole/kg clay. Bars indicate standard errors.

The text below walks through data of patent US6261997A, “Slow release formulations of pesticides” (Yissum Research Development Company of the Hebrew …, priority 1996, dated 2001).

In the case of `CCCC[N+](CCCC)(CCCC)Cc1ccccc1.[Cl-]` [BTBA, benzyl tributyl ammonium chloride], the “inhibition of movement / leaching of the herbicide in the soil profile” value in data set [1] was “significant inhibition of herbicide leaching has been achieved”.

Consider `CCOCN(C(=O)CCl)c1c(C)cccc1CC` [acetochlor], for which, in data set [1], the “inhibition of movement / leaching of the herbicide in the soil profile” value was “The same trend was also found”. In addition, the “adsorption on montmorillonite pre adsorbed by organic cations” value in data set [2] is given as “enhanced adsorption”. Further, the “adsorption on montmorillonite preadsorbed by PTMA” value in data set [2] (PTMA 0.5 mmol/g clay) is “Enhanced adsorption”.

Regarding `CCc1cccc(CC)c1N(COC)C(=O)CCl` [alachlor], the “adsorption on montmorillonite pre adsorbed by organic cations” value in data set [2] is recorded as “enhanced adsorption”.

`C[N+](C)(C)Cc1ccccc1.[Cl-]` [BTMA, benzyltrimethyl ammonium chloride]: the “inhibition of movement / leaching of the herbicide in the soil profile” value in data set [1] is given as “significant inhibition of herbicide leaching has been achieved”.

Regarding `CC[N+](CC)(CC)Cc1ccccc1.[Br-]` [BTEA, benzyltriethyl ammonium bromide], the “inhibition of movement / leaching of the herbicide in the soil profile” value in data set [1] is given as “significant inhibition of herbicide leaching has been achieved”.

For the compound `CNc1cnn(-c2cccc(C(F)(F)F)c2)c(=O)c1Cl` [norflurazon], the “inhibition of movement / leaching of the herbicide in the soil profile” value in data set [1] is reported as “The same trend was also found”.
